Experimental data from ChEMBL document CHEMBL3856213, “neo-Clerodane diterpenoids from Scutellaria barbata mediated inhibition of P-glycoprotein in MCF-7/ADR cells” (Eur J Med Chem, 2016).
Activity calls are given as the source filed them. The calls are words filed in the database; no cut-off is given here.

Legend:
[1] = Cytotoxicity against human MCF7 cells assessed as inhibition of cell survival rate after 48 hrs by MTT assay; format: functional, cell-based; conditions: MCF7, 48 h
[2] = Cytotoxicity against human MCF7/ADR cells assessed as inhibition of cell survival rate after 48 hrs by MTT assay; format: functional, cell-based; conditions: NCI/ADR-RES
NCI/ADR-RES [3] = test: Reversal index, ratio of IC50 for human MCF7/ADR cells to IC50 for human MCF7 cells; format: functional
[4] = Cytotoxicity against human MCF7 cells assessed as inhibition of cell survival rate at 50 uM after 48 hrs by MTT assay relative to control; format: functional; conditions: MCF7, 48 h
NCI/ADR-RES [5] = test: Inhibition of P-gp in human MCF7/ADR cells assessed as potentiation of adriamycin-induced cytotoxic activity at 20 uM after 48 hrs by MTT assay relative to control; format: cell-based
NCI/ADR-RES [6] = test: Inhibition of P-gp in human MCF7/ADR cells assessed as increase in intracellular adriamycin accumulation at 20 uM after 3 hrs by flow cytometry; format: cell-based
NCI/ADR-RES [7] = test: Inhibition of P-gp in human MCF7/ADR cells assessed as increase in intracellular adriamycin accumulation at 10 uM after 3 hrs by flow cytometry relative to verapamil; format: cell-based
NCI/ADR-RES [8] = test: Inhibition of P-gp in human MCF7/ADR cells assessed as increase in intracellular adriamycin accumulation at 20 uM after 3 hrs by flow cytometry relative to verapamil; format: cell-based
NCI/ADR-RES [9] = test: Inhibition of P-gp in human MCF7/ADR cells assessed as increase in intracellular adriamycin accumulation at 10 to 20 uM after 4 hrs by fluorescence microscopic analysis; format: cell-based
NCI/ADR-RES [10] = test: Inhibition of P-gp in human MCF7/ADR cells assessed as increase in intracellular rhodamine123 accumulation at 10 to 20 uM incubated for 4 hrs in dark condition by flow cytometry; format: cell-based
[11] = Downregulation of P-gp expression in human MCF7/ADR cells at 10 uM after 36 hrs by Western blot method relative to control; format: functional, cell-based; conditions: NCI/ADR-RES
NCI/ADR-RES [12] = test: Inhibition of P-gp in human MCF7/ADR cells assessed as potentiation of adriamycin-induced cell death by measuring dead cell levels at 20 uM after 48 hrs by 7-AAD staining-based flow cytometry (reference value: 8.1%); design: scale not given: the % may be the effect or the level left
[13] = Downregulation of P-gp expression in human MCF7/ADR cells at 20 uM after 36 hrs by Western blot method relative to control; format: functional, cell-based; conditions: NCI/ADR-RES
NCI/ADR-RES [14] = test: Inhibition of P-gp in human MCF7/ADR cells assessed as increase in intracellular adriamycin accumulation at 10 uM after 3 hrs by flow cytometry relative to control; format: cell-based
NCI/ADR-RES [15] = test: Inhibition of P-gp in human MCF7/ADR cells assessed as potentiation of adriamycin-induced cell death by measuring dead cell levels at 10 uM after 48 hrs by 7-AAD staining-based flow cytometry; design: scale not given: the % may be the effect or the level left

Structure (SMILES) | inhibition at 50 µM [4] [%] | fold change (FC) (NCI/ADR-RES [5]) | inhibition (NCI/ADR-RES [6]) | inhibition (NCI/ADR-RES [10]) | further results
CC[C@]1(O)C[C@H]2CN(CCc3c([nH]c4ccccc34)[C@@](C(=O)OC)(c3cc4c(cc3OC)N(C=O)[C@H]3[C@@](O)(C(=O)OC)[C@H](OC(C)=O)[C@]5(CC)C=CCN6CC[C@]43[C@@H]65)C2)C1 [VINCRISTINE] |  |  |  |  | IC50 [1]: 1.3 µM; IC50 [2]: 62.8 µM; Ratio IC50 (NCI/ADR-RES [3]): 48.3
CC(=O)O[C@@H](CC1=C(O)C(=O)OC1)[C@]1(C)[C@H]2CCC=C(C)[C@]2(C)[C@@H](OC(=O)c2cccnc2)[C@H](OC(=O)c2ccccc2)[C@]1(C)O | 23.1 | 2 |  |  | 
CC(=O)O[C@@H](CC1=C(O)C(=O)OC1)[C@]1(C)[C@H]2CCC=C(C)[C@]2(C)[C@@H](OC(=O)c2cccnc2)[C@H](O)[C@]1(C)O | 18.5 | 1.5 |  |  | 
CC1=CCC[C@H]2[C@@]1(C)[C@@H](OC(=O)c1cccnc1)[C@H](OC(=O)c1cccnc1)[C@](C)(O)[C@]2(C)/C=C/C1=CC(=O)OC1 | 31.4 | 4.6 |  |  | 
CC1=CC[C@@H](OC(=O)c2cccnc2)[C@H]2[C@@]1(C)[C@@H](OC(=O)c1cccnc1)[C@H](OC(=O)c1ccccc1)[C@]1(C)O[C@]3(CC[C@]21C)COC(=O)C3 | 13.6 | 45.3 | Active | Active | fold change (FC) (NCI/ADR-RES [7]): 1.5; fold change (FC) (NCI/ADR-RES [8]): 1.8; inhibition (NCI/ADR-RES [9]): Active; Activity [11]: 27%; Activity (NCI/ADR-RES [12]): 89.2%; Activity [13]: 32%; fold change (FC) (NCI/ADR-RES [14]): 2.89; Activity (NCI/ADR-RES [15]): 74.7%
CC(=O)OC(C(=O)O[C@H]1[C@H](OC(=O)c2cccnc2)[C@@]2(C)C(C)=CCC[C@@H]2[C@@](C)(CCC2=C(O)C(=O)OC2)[C@@]1(C)O)C(C)C (stereo not given in full) | 37.6 | 3 |  |  | 
COc1cccc2c1C(=O)c1c(O)c3c(c(O)c1C2=O)C[C@@](O)(C(=O)CO)C[C@@H]3O[C@H]1C[C@H](N)[C@H](O)[C@H](C)O1.Cl [DOXORUBICIN HYDROCHLORIDE] |  |  |  |  | IC50 [1]: 1 µM; IC50 [2]: 58.8 µM; Ratio IC50 (NCI/ADR-RES [3]): 58.8
CC1=CCC[C@H]2[C@@]1(C)[C@@H](OC(=O)c1cccnc1)[C@H](OC(=O)c1ccccc1)[C@](C)(O)[C@]2(C)/C=C/C1=CC(=O)OC1 | 23.8 | 10.1 |  |  | 
CC1=CC[C@@H](OC(=O)c2cccnc2)[C@H]2[C@@]1(C)[C@H]1O[C@@](O)(C(C)C)C(=O)O[C@@H]1[C@]1(C)O[C@@]3(CC[C@]21C)COC(=O)C3 | 20.6 | 12.2 | Active | Active | inhibition (NCI/ADR-RES [14]): Active
CC1=CC[C@@H](O)[C@H]2[C@@]1(C)[C@@H](OC(=O)c1cccnc1)[C@H](O)[C@]1(C)O[C@]3(COC(=O)C3)C[C@H](OC(=O)c3cccnc3)[C@]21C (relative stereo) | 14.6 | 7.5 |  |  | 
CC(=O)O[C@H]1[C@H](OC(=O)c2cccnc2)[C@@]2(C)C(C)=CC[C@@H](OC(=O)c3cccnc3)[C@@H]2[C@@]2(C)CC[C@]3(COC(=O)C3)O[C@@]12C | 28.5 | 16.7 | Active | Active | inhibition (NCI/ADR-RES [14]): Active
CC(=O)OC[C@@]12[C@@H](OC(C)=O)C[C@@H](C)[C@](C)(C3O[C@@H]4OC[C@@H](OC(=O)c5cccnc5)[C@@H]4[C@@H]3O)[C@H]1CCC[C@]21CO1 (stereo not given in full) | 25.2 | 2.8 |  |  | 
CC1=CCC[C@H]2[C@@]1(C)[C@@H](OC(=O)c1cccnc1)[C@H](OC(=O)C(C)C)[C@](C)(O)[C@]2(C)/C=C/C1=CC(=O)OC1 | 19.1 | 6.3 |  |  | 
CC1=CC[C@@H](O)[C@H]2[C@@]1(C)[C@@H](OC(=O)c1cccnc1)[C@H](O)[C@]1(C)O[C@]3(COC(=O)C3O)C[C@H](OC(=O)c3cccnc3)[C@]21C (relative stereo) | 19.5 | 7.9 |  |  | 
CC1=CC[C@@H](OC(=O)c2cccnc2)[C@H]2[C@@]1(C)[C@@H](OC(=O)c1cccnc1)[C@H](OC(=O)c1cccnc1)[C@]1(C)O[C@]3(CC[C@]21C)COC(=O)C3 | 40.6 | 29.6 | Active | Active | fold change (FC) (NCI/ADR-RES [14]): 2.27
CC1=CC[C@@H](OC(=O)c2ccccc2)[C@H]2[C@@]1(C)[C@@H](OC(=O)c1cccnc1)[C@H](O)[C@]1(C)O[C@@]3(CC[C@]21C)COC(=O)C3 | 41.3 | 33.4 | Active | Active | inhibition (NCI/ADR-RES [14]): Active
CC(=O)O[C@H]1[C@H](OC(=O)c2cccnc2)[C@@]2(C)C(C)=CC[C@@H](OC(=O)c3cccnc3)[C@@H]2[C@@]2(C)CC[C@@]3(COC(=O)C3)O[C@@]12C | 35.7 | 37.7 | Active | Active | fold change (FC) (NCI/ADR-RES [14]): 2.36
CC(=O)O[C@H]1[C@H](OC(C)=O)[C@]2(C)O[C@@]3(CC[C@]2(C)[C@H]2[C@H](OC(=O)c4cccnc4)CC=C(C)[C@]12C)COC(=O)C3 (relative stereo) | 16.6 | 11.5 | Active | Active | inhibition (NCI/ADR-RES [14]): Active
COc1ccc(CCN(C)CCCC(C#N)(c2ccc(OC)c(OC)c2)C(C)C)cc1OC (stereo not given) |  | 20.4 |  |  | fold change (FC) (NCI/ADR-RES [14]): 2.1; Activity (NCI/ADR-RES [15]): 46.7%
CC1=CCC[C@H]2[C@@]1(C)[C@@H](OC(=O)c1cccnc1)[C@H](OC(=O)c1cccnc1)[C@](C)(O)[C@]2(C)/C=C\C1=CC(=O)OC1 | 18.8 | 13.1 |  |  | 
CC(=O)O[C@H]1[C@H](OC(C)=O)[C@]2(C)O[C@]3(CC[C@]2(C)[C@H]2[C@H](OC(=O)c4cccnc4)CC=C(C)[C@]12C)COC(=O)C3 | 19.5 | 13 |  | Active | 
CC(=O)O[C@@H](CC1=C(O)C(=O)OC1)[C@]1(C)[C@H]2CCC=C(C)[C@]2(C)[C@@H](OC(=O)c2cccnc2)[C@H](OC(=O)c2cccnc2)[C@]1(C)O | 17.1 | 3.3 |  |  | 
CC1=CCC[C@H]2[C@@]1(C)[C@@H](OC(=O)c1cccnc1)[C@H](O)[C@](C)(O)[C@]2(C)CCC1=C(O)C(=O)OC1 | 28.5 | 11.5 |  |  | 
CC1=CC[C@@H](OC(=O)c2cccnc2)[C@H]2[C@@]1(C)[C@@H](OC(=O)c1cccnc1)[C@H](O)[C@]1(C)O[C@@]3(CC[C@]21C)COC(=O)C3 | 15.1 | 11.4 | Active | Active | inhibition (NCI/ADR-RES [14]): Active
CC(=O)O[C@@]12CO[C@@H]1C[C@H](O)[C@@]1(C)C(=O)[C@H](O)C3=C(C)[C@@H](OC(=O)[C@H](O)[C@@H](NC(=O)OC(C)(C)C)c4ccccc4)C[C@@](O)([C@@H](OC(=O)c4ccccc4)[C@H]21)C3(C)C [DOCETAXEL ANHYDROUS] |  |  |  |  | IC50 [1]: 0.8 µM; IC50 [2]: 21.2 µM; Ratio IC50 (NCI/ADR-RES [3]): 26.5
CC1=CCC[C@H]2[C@@]1(C)[C@@H](OC(=O)c1cccnc1)[C@H](OC(=O)c1ccccc1)[C@](C)(O)[C@]2(C)/C=C\C1=CC(=O)OC1 | 17.4 | 9 |  |  | 
CC1=CC[C@@H](OC(=O)c2ccccc2)[C@H]2[C@@]1(C)[C@@H](OC(=O)c1cccnc1)[C@H](O)[C@]1(C)O[C@]3(CC[C@]21C)COC(=O)C3 (relative stereo) | 20.1 | 17.8 | Active | Active | inhibition (NCI/ADR-RES [14]): Active
CC(=O)OC(C(=O)O[C@H]1[C@H](OC(=O)c2cccnc2)[C@@]2(C)C(C)=CCC[C@@H]2[C@@](C)(/C=C/C2=CC(=O)OC2)[C@@]1(C)O)C(C)C (stereo not given in full) | 23.8 | 11.4 |  |  | 
CC(=O)O[C@H]1[C@H](OC(=O)c2cccnc2)[C@@]2(C)C(C)=CC[C@@H](O)[C@@H]2[C@@]2(C)[C@@H](OC(=O)c3cccnc3)C[C@@]3(COC(=O)C3)O[C@@]12C | 14.3 | 29.1 | Active | Active | inhibition (NCI/ADR-RES [14]): Active
